According to US12570650B2, “6-substituted pyridazine compounds as SMARCA2 and/or SMARCA4 degraders” (Aurigene Oncology Limited, priority 2020, dated 2026):
Each block holds one compound with its values, some of them ahead of it.

Legend:
Type in all cases: cell-based
[1] = tested on: RERF-LC-A1 cell line; experiment: Anti proliferative activity, Cell Titer Glo assay, RERF-LC-A1; settings: 144 h; RERF-LC-A1 cells, terminated day 6 without retreatment, CellTiter-Glo
Procedure: (§1) Example-P3: Determination of Anti Proliferative Activity of Compounds by Cell Titer Glo®(Promega) Assay
(§2) Cells were seeded into 96-well plates and the plate was incubated in 37 degrees incubator overnight. The next day, compounds were diluted 3-fold to cover 9-point concentration range in DMSO. Intermediate plate dilution was prepared in media followed with compound treatment in cells. Retreatment of cells with compound dilutions was performed on Day 4 and assay was terminated on day 8 for SK-MEL-5 cells using CellTiter-Glo and the plate was kept on orbital shaker for 20 minutes at RT. Assay was terminated on day 6 for RERF-LC-A1 without a compound retreatment. Luminescence signal was recorded on VICTOR^3 instrument. Percent inhibition of proliferation was calculated at each concentration and plotted against the compound concentration. EC50 value was calculated using GraphPad software.
Herein the group “++” refers to EC50 (RERF-LC-A1) values lower than 100 nM and “+” refers to EC50 (RERF-LC-A1) values greater than 100 nM.

[2] = biological target: T1, SMARCA2 (Homo sapiens, UniProt P51531); experiment: SMARCA2 degradation in VCaP cells by Western blot; settings: 16 hours
T1 construct: Determination of SMARCA2 and SMARCA4 Degradation in VCaP Cells by Western Blot; endogenous in cells; host or cells: VCaP (ATCC CRL-2876)
T1 sequence (P51531 whole entry): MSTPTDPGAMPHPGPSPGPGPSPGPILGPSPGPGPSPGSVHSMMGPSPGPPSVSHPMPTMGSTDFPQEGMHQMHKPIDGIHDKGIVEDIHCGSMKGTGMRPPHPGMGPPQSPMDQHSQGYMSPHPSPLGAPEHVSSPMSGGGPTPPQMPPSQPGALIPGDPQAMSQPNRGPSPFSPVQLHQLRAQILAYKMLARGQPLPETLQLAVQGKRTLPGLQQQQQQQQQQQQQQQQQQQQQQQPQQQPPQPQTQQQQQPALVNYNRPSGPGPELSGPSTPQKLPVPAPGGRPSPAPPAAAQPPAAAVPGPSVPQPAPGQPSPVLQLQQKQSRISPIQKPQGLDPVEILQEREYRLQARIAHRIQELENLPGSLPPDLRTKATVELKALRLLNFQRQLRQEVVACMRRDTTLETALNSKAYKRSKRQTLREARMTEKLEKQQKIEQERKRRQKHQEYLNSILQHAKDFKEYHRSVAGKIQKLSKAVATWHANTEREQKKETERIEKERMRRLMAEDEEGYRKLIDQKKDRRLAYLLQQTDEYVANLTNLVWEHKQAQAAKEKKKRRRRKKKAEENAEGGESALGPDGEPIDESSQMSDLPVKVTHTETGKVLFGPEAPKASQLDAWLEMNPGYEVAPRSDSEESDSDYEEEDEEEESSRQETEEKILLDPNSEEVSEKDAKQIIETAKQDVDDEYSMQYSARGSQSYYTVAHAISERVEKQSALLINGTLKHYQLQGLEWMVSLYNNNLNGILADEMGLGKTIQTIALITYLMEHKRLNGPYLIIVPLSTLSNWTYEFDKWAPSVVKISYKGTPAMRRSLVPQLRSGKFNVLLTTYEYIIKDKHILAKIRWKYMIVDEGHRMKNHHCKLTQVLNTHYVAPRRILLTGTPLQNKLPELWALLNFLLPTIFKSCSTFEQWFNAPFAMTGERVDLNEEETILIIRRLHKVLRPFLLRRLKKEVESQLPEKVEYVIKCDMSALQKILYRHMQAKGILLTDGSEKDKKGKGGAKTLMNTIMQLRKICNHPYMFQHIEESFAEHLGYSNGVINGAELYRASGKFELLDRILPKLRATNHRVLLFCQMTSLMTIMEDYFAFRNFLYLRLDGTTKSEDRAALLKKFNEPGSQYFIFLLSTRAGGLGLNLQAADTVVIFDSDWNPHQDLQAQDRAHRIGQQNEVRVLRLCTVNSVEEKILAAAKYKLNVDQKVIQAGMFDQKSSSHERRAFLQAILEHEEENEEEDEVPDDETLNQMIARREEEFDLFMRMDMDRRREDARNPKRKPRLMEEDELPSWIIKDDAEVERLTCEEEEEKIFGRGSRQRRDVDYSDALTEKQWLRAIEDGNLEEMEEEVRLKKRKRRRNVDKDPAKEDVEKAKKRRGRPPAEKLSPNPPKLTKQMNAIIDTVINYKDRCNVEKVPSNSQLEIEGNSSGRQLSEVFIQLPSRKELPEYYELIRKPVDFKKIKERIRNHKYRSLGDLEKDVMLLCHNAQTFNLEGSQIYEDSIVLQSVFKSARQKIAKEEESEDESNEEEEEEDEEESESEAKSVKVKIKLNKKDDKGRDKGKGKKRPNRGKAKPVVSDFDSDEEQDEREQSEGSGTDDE
Procedure: Example-P2: Determination of SMARCA2 and SMARCA4 Degradation in VCaP Cells by Western Blot
VCaP (ATCC CRL-2876) was plated in 6 well plates using complete Dulbecco's Modified Eagle's Medium. On the third day, compounds of present invention were added to cells from 10 mM stocks made in DMSO (Sigma Cat no. D2650). Each concentration of compound was tested with DMSO not exceeding final percentage of 0.3 in the cells. Cells were incubated with the compound for 16 hours followed by harvesting with 1×RIPA lysis buffer (Thermo Fischer, catalogue number #89900) containing protease inhibitor cocktail (Sigma catalogue number #P-8340). Equal amount of protein was loaded on SDS PAGE gel for electrophoresis. Western blot was carried out for detection of either SMARCA2 (Cell signalling technologies, catalogue number #11966) or SMARCA4 antibody (Cell signalling technologies, catalogue number #52251). Beta-Tubulin antibody (Cell signalling technologies, catalogue number #86298) was used as loading control. Percentage of SMARCA2 or SMARCA4 degradation was calculated using formula % Degradation=100−(normalized band intensity in treated sample/normalized band intensity in DMSO sample)*100.

[3] = tested on: SK-MEL-5 cells; experiment: Anti proliferative activity, Cell Titer Glo assay, SK-MEL-5; settings: Homo sapiens, SK-MEL-5, SK-MEL-5 cells, retreatment Day 4, terminated day 8, CellTiter-Glo
Procedure: as §1, §2

[4] = biological target: T2, SMARCA4 (Homo sapiens, UniProt P51532); experiment: SMARCA4 degradation in VCaP cells by Western blot; settings: 16 hours
T2 construct: Determination of SMARCA2 and SMARCA4 Degradation in VCaP Cells by Western Blot; endogenous in cells; host or cells: VCaP (ATCC CRL-2876)
T2 sequence (P51532 whole entry): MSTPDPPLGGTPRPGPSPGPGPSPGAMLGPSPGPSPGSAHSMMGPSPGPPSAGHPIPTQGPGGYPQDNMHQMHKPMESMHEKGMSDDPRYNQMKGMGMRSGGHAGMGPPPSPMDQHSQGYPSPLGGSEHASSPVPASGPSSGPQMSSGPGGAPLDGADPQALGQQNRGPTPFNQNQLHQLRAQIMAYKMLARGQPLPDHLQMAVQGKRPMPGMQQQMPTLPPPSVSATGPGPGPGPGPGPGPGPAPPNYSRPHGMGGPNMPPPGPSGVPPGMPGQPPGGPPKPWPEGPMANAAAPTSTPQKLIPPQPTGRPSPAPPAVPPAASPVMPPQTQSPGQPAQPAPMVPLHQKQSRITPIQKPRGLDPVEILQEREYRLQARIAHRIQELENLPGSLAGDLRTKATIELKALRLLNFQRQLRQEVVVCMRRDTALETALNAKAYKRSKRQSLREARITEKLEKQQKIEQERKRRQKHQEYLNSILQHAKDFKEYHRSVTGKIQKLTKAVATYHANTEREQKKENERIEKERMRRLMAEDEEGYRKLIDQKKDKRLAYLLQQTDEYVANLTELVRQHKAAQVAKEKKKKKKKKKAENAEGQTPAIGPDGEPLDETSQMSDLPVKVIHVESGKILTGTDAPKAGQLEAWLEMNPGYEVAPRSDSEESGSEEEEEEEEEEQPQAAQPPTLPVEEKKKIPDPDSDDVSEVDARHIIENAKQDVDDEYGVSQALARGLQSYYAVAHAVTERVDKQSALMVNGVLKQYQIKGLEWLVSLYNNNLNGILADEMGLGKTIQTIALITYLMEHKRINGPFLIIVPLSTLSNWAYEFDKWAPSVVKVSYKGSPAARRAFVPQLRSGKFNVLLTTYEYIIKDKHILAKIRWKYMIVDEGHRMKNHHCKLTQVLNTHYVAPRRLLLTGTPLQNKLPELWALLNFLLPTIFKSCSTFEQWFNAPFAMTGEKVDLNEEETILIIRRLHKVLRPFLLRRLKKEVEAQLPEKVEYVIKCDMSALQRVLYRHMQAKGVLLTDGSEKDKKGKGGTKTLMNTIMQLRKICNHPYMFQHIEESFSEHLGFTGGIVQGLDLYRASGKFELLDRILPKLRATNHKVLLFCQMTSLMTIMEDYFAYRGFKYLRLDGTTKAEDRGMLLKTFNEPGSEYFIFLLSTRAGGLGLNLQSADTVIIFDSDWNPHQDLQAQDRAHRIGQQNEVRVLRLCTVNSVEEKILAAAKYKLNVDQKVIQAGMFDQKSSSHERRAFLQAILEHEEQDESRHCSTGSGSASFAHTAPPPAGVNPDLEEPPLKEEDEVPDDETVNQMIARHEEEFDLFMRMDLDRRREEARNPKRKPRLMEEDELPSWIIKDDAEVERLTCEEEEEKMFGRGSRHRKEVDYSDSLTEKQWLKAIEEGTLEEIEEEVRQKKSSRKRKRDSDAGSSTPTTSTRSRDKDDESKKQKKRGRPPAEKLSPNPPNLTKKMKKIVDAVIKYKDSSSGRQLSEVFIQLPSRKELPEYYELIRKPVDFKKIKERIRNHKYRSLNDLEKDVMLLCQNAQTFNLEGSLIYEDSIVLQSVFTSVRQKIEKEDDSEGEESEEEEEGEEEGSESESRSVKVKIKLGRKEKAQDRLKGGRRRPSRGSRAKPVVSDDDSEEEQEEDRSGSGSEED
Procedure: On the third day, compounds of present invention were added to cells from 10 mM stocks made in DMSO (Sigma Cat no. D2650). Each concentration of compound was tested with DMSO not exceeding final percentage of 0.3 in the cells. […] Equal amount of protein was loaded on SDS PAGE gel for electrophoresis. […] Percentage of SMARCA2 or SMARCA4 degradation was calculated using formula % Degradation=100−(normalized band intensity in treated sample/normalized band intensity in DMSO sample)*100.

Compound: Cc1ncsc1-c1ccc([C@H](C)NC(=O)[C@@H]2C[C@@H](O)CN2C(=O)C(c2cc(OCCOc3ccc(-c4cnnc(-c5ccccc5O)c4)cc3)no2)C(C)C)cc1 (mixture of isomers) [Compound 42, (2S,4R)-4-hydroxy-1-(2-(3-(2-(4-(6-(2-hydroxyphenyl)pyridazin-4-yl)phenoxy)ethoxy)isoxazol-5-yl)-3-methylbutanoyl)-N-((S)-1-(4-(4-methylthiazol-5-yl)phenyl)ethyl)pyrrolidine-2-carboxamide]
EC50 [1]: > 0.1 µM | Percent degradation (at 100 nM) SMARCA2 [2]: 57%

Compound: Cc1ncsc1-c1ccc(CNC(=O)[C@@H]2C[C@@H](O)CN2C(=O)[C@@H](NC(=O)CN2CCC(c3ccc(-c4cnnc(-c5ccccc5O)c4)cc3)CC2)C(C)(C)C)cc1 [Compound 12, (2S,4R)-4-hydroxy-1-((S)-2-(2-(4-(4-(6-(2-hydroxyphenyl)pyridazin-4-yl)phenyl)piperidin-1-yl)acetamido)-3,3-dimethylbutanoyl)-N-(4-(4-methylthiazol-5-yl)benzyl)pyrrolidine-2-carboxamide]
EC50 [3]: > 0.5 µM | EC50 [1]: < 0.1 µM | Percent degradation (at 100 nM) SMARCA4 [4]: 0% | Percent degradation (at 100 nM) SMARCA2 [2]: 75%

Compound: Cc1ncsc1-c1ccc([C@H](C)NC(=O)[C@@H]2C[C@@H](O)CN2C(=O)[C@@H](NC(=O)CN2C3CCC2CC(c2ccc(-c4cnnc(-c5ccccc5O)c4)cc2)C3)C(C)(C)C)cc1 (stereo partly drawn) [Compound 25, (2S,4R)-4-hydroxy-1-((2S)-2-(2-(3-(4-(6-(2-hydroxyphenyl)pyridazin-4-yl)phenyl)-8-azabicyclo[3.2.1]octan-8-yl)acetamido)-3,3-dimethylbutanoyl)-N-((S)-1-(4-(4-methylthiazol-5-yl)phenyl)ethyl)pyrrolidine-2-carboxamide]
EC50 [3]: 0.25 to 0.5 µM | Percent degradation (at 100 nM) SMARCA4 [4]: 0% | Percent degradation (at 100 nM) SMARCA2 [2]: 75%

Compound: Cc1ncsc1-c1ccc([C@H](C)NC(=O)[C@@H]2C[C@@H](O)CN2C(=O)[C@@H](NC(=O)CN2CCC(O)(c3ccc(-c4cnnc(-c5ccccc5O)c4)cc3)CC2)C(C)(C)C)cc1 [Compound 32, (2S,4R)-4-hydroxy-1-((S)-2-(2-(4-hydroxy-4-(4-(6-(2-hydroxyphenyl)pyridazin-4-yl)phenyl)piperidin-1-yl)acetamido)-3,3-dimethylbutanoyl)-N-((S)-1-(4-(4-methylthiazol-5-yl)phenyl)ethyl)pyrrolidine-2-carboxamide]
EC50 [3]: > 0.5 µM | Percent degradation (at 100 nM) SMARCA4 [4]: 0% | Percent degradation (at 100 nM) SMARCA2 [2]: 57%

Compound: Cc1ncsc1-c1ccc([C@H](C)NC(=O)[C@@H]2C[C@@H](O)CN2C(=O)[C@@H](NC(=O)CCCCNc2ccc(-c3cnnc(-c4ccccc4O)c3)cc2)C(C)(C)C)cc1 [Compound 36, (2S,4R)-4-hydroxy-1-((S)-2-(5-((4-(6-(2-hydroxyphenyl)pyridazin-4-yl)phenyl)amino)pentanamido)-3,3-dimethylbutanoyl)-N-((S)-1-(4-(4-methylthiazol-5-yl)phenyl)ethyl)pyrrolidine-2-carboxamide]
EC50 [3]: < 0.25 µM | Percent degradation (at 100 nM) SMARCA4 [4]: 19% | Percent degradation (at 100 nM) SMARCA2 [2]: 90%

More lines, main results first:

EC50 [3]: < 0.25 µM | Percent degradation (at 100 nM) SMARCA4 [4]: 0% | Percent degradation (at 100 nM) SMARCA2 [2]: 94%
Compound: Cc1ncsc1-c1ccc([C@H](C)NC(=O)[C@@H]2C[C@@H](O)CN2C(=O)[C@@H](NC(=O)CN2CCN(c3ccc(-c4cnnc(-c5ccccc5O)c4)cc3)CC2)C(C)(C)C)cc1 [Compound 2, (2S,4R)-4-hydroxy-1-((S)-2-(2-(4-(4-(6-(2-hydroxyphenyl)pyridazin-4-yl)phenyl)piperazin-1-yl)acetamido)-3,3-dimethylbutanoyl)-N-((S)-1-(4-(4-methylthiazol-5-yl)phenyl)ethyl)pyrrolidine-2-carboxamide]
EC50 [1]: < 0.1 µM

EC50 [3]: < 0.25 µM | Percent degradation (at 100 nM) SMARCA4 [4]: 0% | Percent degradation (at 100 nM) SMARCA2 [2]: 94%
Compound: Cc1ncsc1-c1ccc([C@H](C)NC(=O)[C@@H]2C[C@@H](O)CN2C(=O)[C@@H](NC(=O)CN2CCN(c3ccc(-c4cnnc(-c5ccccc5O)c4)cn3)CC2)C(C)(C)C)cc1 [Compound 5, (2S,4R)-4-hydroxy-1-((S)-2-(2-(4-(5-(6-(2-hydroxyphenyl)pyridazin-4-yl)pyridin-2-yl)piperazin-1-yl)acetamido)-3,3-dimethylbutanoyl)-N-((S)-1-(4-(4-methylthiazol-5-yl)phenyl)ethyl)pyrrolidine-2-carboxamide]
EC50 [1]: > 0.1 µM

EC50 [3]: < 0.25 µM | Percent degradation (at 100 nM) SMARCA4 [4]: 40% | Percent degradation (at 100 nM) SMARCA2 [2]: 97%
Compound: Cc1ncsc1-c1ccc([C@H](C)NC(=O)[C@@H]2C[C@@H](O)CN2C(=O)[C@@H](NC(=O)CC2CCN(c3ccc(-c4cnnc(-c5ccccc5O)c4)cc3)CC2)C(C)(C)C)cc1 [Compound 6, (2S,4R)-4-hydroxy-1-((S)-2-(2-(1-(4-(6-(2-hydroxyphenyl)pyridazin-4-yl)phenyl)piperidin-4-yl)acetamido)-3,3-dimethylbutanoyl)-N-((S)-1-(4-(4-methylthiazol-5-yl)phenyl)ethyl)pyrrolidine-2-carboxamide]
EC50 [1]: < 0.1 µM

EC50 [3]: 0.25 to 0.5 µM | Percent degradation (at 100 nM) SMARCA4 [4]: 0% | Percent degradation (at 100 nM) SMARCA2 [2]: 83%
Compound: Cc1ncsc1-c1ccc([C@H](C)NC(=O)[C@@H]2C[C@@H](O)CN2C(=O)[C@@H](NC(=O)CN2CC=C(c3ccc(-c4cnnc(-c5ccccc5O)c4)cc3)CC2)C(C)(C)C)cc1 [Compound 10, (2S,4R)-4-hydroxy-1-((S)-2-(2-(4-(4-(6-(2-hydroxyphenyl)pyridazin-4-yl)phenyl)-3,6-dihydropyridin-1(2H)-yl)acetamido)-3,3-dimethylbutanoyl)-N-((S)-1-(4-(4-methylthiazol-5-yl)phenyl)ethyl)pyrrolidine-2-carboxamide]
EC50 [1]: < 0.1 µM

EC50 [3]: < 0.25 µM | Percent degradation (at 100 nM) SMARCA4 [4]: 0% | Percent degradation (at 100 nM) SMARCA2 [2]: 91%
Compound: Cc1ncsc1-c1ccc([C@H](C)NC(=O)[C@@H]2C[C@@H](O)CN2C(=O)[C@@H](NC(=O)CN2CCC(c3ccc(-c4cnnc(-c5ccccc5O)c4)cc3)CC2)C(C)(C)C)cc1 [Compound 11, (2S,4R)-4-hydroxy-1-((S)-2-(2-(4-(4-(6-(2-hydroxyphenyl)pyridazin-4-yl)phenyl)piperidin-1-yl)acetamido)-3,3-dimethylbutanoyl)-N-((S)-1-(4-(4-methylthiazol-5-yl)phenyl)ethyl)pyrrolidine-2-carboxamide]
EC50 [1]: < 0.1 µM

EC50 [3]: > 0.5 µM
Compound: Cc1ncsc1-c1ccc([C@H](C)NC(=O)[C@@H]2C[C@@H](O)CN2C(=O)[C@@H](NC(=O)C(C)N2CCC(c3ccc(-c4cnnc(-c5ccccc5O)c4)cc3)CC2)C(C)(C)C)cc1 (stereo partly drawn) [Compound 14, (2S,4R)-4-hydroxy-1-((2S)-2-(2-(4-(4-(6-(2-hydroxyphenyl)pyridazin-4-yl)phenyl)piperidin-1-yl)propanamido)-3,3-dimethylbutanoyl)-N-((S)-1-(4-(4-methylthiazol-5-yl)phenyl)ethyl)pyrrolidine-2-carboxamide]
EC50 [1]: < 0.1 µM

EC50 [3]: 0.25 to 0.5 µM | Percent degradation (at 100 nM) SMARCA4 [4]: 0% | Percent degradation (at 100 nM) SMARCA2 [2]: 38%
Compound: Cc1ncsc1-c1ccc([C@H](C)NC(=O)[C@@H]2C[C@@H](O)CN2C(=O)[C@@H](NC(=O)C(C)N2CCN(c3ccc(-c4cnnc(-c5ccccc5O)c4)cc3)CC2)C(C)(C)C)cc1 (stereo partly shown) [Compound 28]

EC50 [3]: 0.25 to 0.5 µM | Percent degradation (at 100 nM) SMARCA4 [4]: 0% | Percent degradation (at 100 nM) SMARCA2 [2]: 89%
Compound: Cc1ncsc1-c1ccc([C@H](C)NC(=O)[C@@H]2C[C@@H](O)CN2C(=O)[C@@H](NC(=O)CN2CC3(CC(c4ccc(-c5cnnc(-c6ccccc6O)c5)cc4)C3)C2)C(C)(C)C)cc1 [Compound 31, (2S,4R)-4-hydroxy-1-((S)-2-(2-(6-(4-(6-(2-hydroxyphenyl)pyridazin-4-yl)phenyl)-2-azaspiro[3.3]heptan-2-yl)acetamido)-3,3-dimethylbutanoyl)-N-((S)-1-(4-(4-methylthiazol-5-yl)phenyl)ethyl)pyrrolidine-2-carboxamide]
